Measured values reported in patent US20250230138A1, “COMPOUNDS HAVING A T-STRUCTURE FORMED BY AT LEAST FOUR CYCLES FOR USE IN THE TREATMENT OF CANCER AND OTHER INDICATIONS” (TheRas, Inc., priority 2022, published 2025).
Like-named read-outs stand apart in the source and are kept apart here.

What was measured:
[1] = target: Cys242 in human PIK3CA (157-299) (Homo sapiens (Human), UniProt P42336); test: Covalent modification assay using MALDI-TOF MS; type: biochemical; conditions: 4 h reaction time point; 1 μM protein target, 1:5 protein to compound ratio (compounds 853-1279)
Procedure, shortened: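 PIK3CA (157-299) at 3.33 μM or 1 μM in 20 mM HEPES, 150 mM NaCl, 2 mM MgCl2, pH 7.3 was incubated with compound (from 10 mM DMSO stocks) in the dark at room temperature for 15 min, 30 min, 2 h or 4 h. Linear-mode MALDI-TOF peak heights gave percent modification.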

pAKT in BT474 cells = test: Cell-based pAKT HTRF assay in BT474 cells; conditions: BT474 cells, 4 hr incubation, Compounds 10-999, read-out: pAKT inhibition IC50 in BT474 cells
Procedure, shortened: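 BT474 cells in DMEM/10% FBS were treated the day after seeding with a 9-point, 3-fold compound series from 3 μM (0.25% DMSO) for 4 hr. Lysates were mixed with d2 and Eu cryptate anti-pAKT antibodies and incubated 4-24 h at room temperature. HTRF was read with excitation at 320 nm and emission at 615 nm.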

Chain of Cys242 in human PIK3CA (157-299) (P42336 157-299): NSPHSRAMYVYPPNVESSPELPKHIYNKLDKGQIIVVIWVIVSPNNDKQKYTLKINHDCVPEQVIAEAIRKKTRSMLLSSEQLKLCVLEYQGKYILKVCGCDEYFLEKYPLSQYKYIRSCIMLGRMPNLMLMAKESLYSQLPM

Row | IC50 (pAKT in BT474 cells) | IC50 (pAKT in BT474 cells; Homo sapiens, BT-474) | SMILES | % of modification [1]
1 | < 100 nM |  | C=CC(=O)N1CCn2nc(-c3nc(-c4cnc5cnn(C)c5c4)c4ccsc4c3-c3c(F)cc(F)cc3OCCO)cc2C1C (stereo not drawn) [Compound 901] | A (percent of modification of PIK3CA protein ≥75%)
2 | < 100 nM |  | C=CC(=O)N1CCn2nc(-c3nc(-c4cnc5cnn(C)c5c4)c4ccsc4c3-c3c(F)cc(F)cc3OCCOC)cc2C1C (stereo not drawn) [Compound 902] | A (percent of modification of PIK3CA protein ≥75%)
3 | < 100 nM |  | C=CC(=O)N1Cc2cc(-c3nc(-c4ccc5nncn5c4)c4ccsc4c3-c3c(F)cc(F)cc3OCCO)nn2CC1C (stereo not drawn) [Compound 903] | A (percent of modification of PIK3CA protein ≥75%)
4 | 100 to 1000 nM |  | C=CC(=O)N1Cc2cc(-c3nc(-c4ccc5c(c4)C(=O)N(C)C5)c4ccsc4c3-c3c(F)cc(F)cc3OC)nn2[C@@H](C)C1 [Compound 905] | C (25%≤percent of modification <50%)
5 |  | < 100 nM | C=CC(=O)N1CCn2nc(-c3nc(-c4ccc5c(cnn5C)c4)c4ccsc4c3-c3c(F)cc(F)cc3OCCO)cc2[C@H]1C [Compound 908, 1-((R)-2-((S)-7-(2,4-difluoro-6-(2-hydroxyethoxy)phenyl)-4-(1-methyl-1H-indazol-5-yl)thieno[3,2-c]pyridin-6-yl)-4-methyl-6,7-dihydropyrazolo[1,5-a]pyrazin-5(4H)-yl)prop-2-en-1-one] | A (percent of modification of PIK3CA protein ≥75%)
6 | < 100 nM |  | C=CC(=O)N1CCn2nc(-c3nc(-c4ccc5cnncc5c4)c4ccsc4c3-c3c(F)cc(F)cc3OCCO)cc2C1C (stereo not drawn) [Compound 909] | A (percent of modification of PIK3CA protein ≥75%)
7 | 100 to 1000 nM |  | C=CC(=O)N1Cc2cc(-c3nc(-c4ccc5c(c4)CNC5=O)c4ccsc4c3-c3c(F)cc(F)cc3OC)nn2C(C)C1 (stereo not drawn) [Compound 910] | B (50%<percent of modification <75%)
8 | < 100 nM |  | C=CC(=O)N1CCn2nc(-c3nc(-c4cnc5cn(C)nc5c4)c4ccsc4c3-c3c(F)cc(F)cc3OCCO)cc2C1C (stereo not drawn) [Compound 913] | A (percent of modification of PIK3CA protein ≥75%)
9 | < 100 nM |  | C=CC(=O)N1CCc2ncc(-c3nc(-c4cn(C)cn4)c4ccsc4c3-c3c(F)cc(F)cc3OCCOC)cc2C1 [Compound 943] | A (percent of modification of PIK3CA protein ≥75%)
10 | < 100 nM |  | C=CC(=O)N1CCc2ncc(-c3nc(-c4ccc5nn(C)cc5c4)c4ccsc4c3-c3c(F)cc(F)cc3OCCOC)cc2C1 [Compound 945] | A (percent of modification of PIK3CA protein ≥75%)
11 | < 100 nM |  | C=CC(=O)N1CCc2nc(-c3nc(-c4ccc5nn(C)cc5c4)c4ccsc4c3-c3c(F)cc(F)cc3OCCOC)sc2C1 [Compound 947] | A (percent of modification of PIK3CA protein ≥75%)
12 | < 100 nM |  | C=CC(=O)N1Cc2cc(-c3nc(-c4ccnnc4)c4ccsc4c3-c3c(F)cc(F)cc3OCCOC)nn2CC1C (stereo not drawn) [Compound 948] | A (percent of modification of PIK3CA protein ≥75%)
13 | 100 to 1000 nM |  | C=CC(=O)N1CCc2ccc(-c3nc(-c4ccc5c(c4)CNC5=O)c4ccsc4c3-c3c(F)cc(F)cc3OCCO)cc2C1 [Compound 950] | D (percent of modification <25%)
14 | < 100 nM |  | C=CC(=O)N1CCn2nc(-c3nc(-c4ccc5c(c4)C(=O)N(C)CC5)c4ccsc4c3-c3c(F)cc(F)cc3OCCOC)cc2[C@H]1C [Compound 953] | A (percent of modification of PIK3CA protein ≥75%)
15 | < 100 nM |  | C=CC(=O)N1CCn2nc(-c3nc(-c4ccc5c(c4)C(=O)NCC5)c4ccsc4c3-c3c(F)cc(F)cc3OCCOC)cc2[C@H]1C [Compound 956] | A (percent of modification of PIK3CA protein ≥75%)

Second part, the compound before the results:

Row | SMILES | IC50 (pAKT in BT474 cells) | IC50 (pAKT in BT474 cells; Homo sapiens, BT-474) | % of modification [1]
16 | C=CC(=O)N1CCn2nc(-c3nc(-c4ccc5cnn(C)c(=O)c5c4)c4ccsc4c3-c3c(F)cc(F)cc3OCCO)cc2[C@H]1C [Compound 899] | < 100 nM |  | A (percent of modification of PIK3CA protein ≥75%)
17 | C=CC(=O)N1CCn2nc(-c3nc(-c4ccc5ncn(C)c(=O)c5c4)c4ccsc4c3-c3c(F)cc(F)cc3OCCO)cc2C1C (stereo not drawn) [Compound 900] | < 100 nM |  | A (percent of modification of PIK3CA protein ≥75%)
18 | C=CC(=O)N1Cc2cc(-c3nc(-c4ccc5c(c4)CNC5=O)c4ccsc4c3-c3c(F)cc(F)cc3OCCO)nn2CC1C (stereo not drawn) [Compound 904] | < 100 nM |  | A (percent of modification of PIK3CA protein ≥75%)
19 | C=CC(=O)N1Cc2cc(-c3nc(-c4ccc5c(c4)CCNC5=O)c4ccsc4c3-c3c(F)cc(F)cc3OCCO)nn2CC1C (stereo not drawn) [Compound 907] | < 100 nM |  | A (percent of modification of PIK3CA protein ≥75%)
20 | C=CC(=O)N1Cc2cc(-c3nc(-c4ccc5c(c4)CN(C)C5=O)c4ccsc4c3-c3c(F)cc(F)cc3OC)nn2C(C)C1 (stereo not drawn) [Compound 911] | 100 to 1000 nM |  | B (50%<percent of modification <75%)
21 | C=CC(=O)N1CCn2nc(-c3nc(-c4cnc5cn(C)nc5c4)c4ccsc4c3-c3c(F)cc(F)cc3OCCOC)cc2C1C (stereo not drawn) [Compound 912] | < 100 nM |  | A (percent of modification of PIK3CA protein ≥75%)
22 | C=CC(=O)N1CCn2nc(-c3nc(-c4ccc5c(=O)n(C)ncc5c4)c4ccsc4c3-c3c(F)cc(F)cc3OCCOC)cc2C1C (stereo not drawn) [Compound 914] | < 100 nM |  | A (percent of modification of PIK3CA protein ≥75%)
23 | C=CC(=O)N1CCn2nc(-c3nc(-c4ccc5ncn(C)c(=O)c5c4)c4ccsc4c3-c3c(F)cc(F)cc3OCCOC)cc2C1C (stereo not drawn) [Compound 915] | < 100 nM |  | A (percent of modification of PIK3CA protein ≥75%)
24 | C=CC(=O)N1CCn2nc(-c3nc(-c4cnc5c(c4)CN(C)C5=O)c4ccsc4c3-c3c(F)cc(F)cc3OCCO)cc2C1C (stereo not drawn) [Compound 924] | < 100 nM |  | A (percent of modification of PIK3CA protein ≥75%)
25 | C=CC(=O)N1CCn2nc(-c3nc(-c4ccc5ncn(C)c(=O)c5c4)c4ccsc4c3-c3c(F)cc(F)cc3OCCOC)cc2C1C (stereo not drawn) [Compound 925] | < 100 nM |  | A (percent of modification of PIK3CA protein ≥75%)
26 | C=CC(=O)N1CCn2nc(-c3nc(-c4ccc5c(c4)CNC(=O)C5)c4ccsc4c3-c3c(F)cc(F)cc3OCCOC)cc2C1C (stereo not drawn) [Compound 926] | < 100 nM |  | A (percent of modification of PIK3CA protein ≥75%)
27 | C=CC(=O)N1Cc2cc(-c3nc(-c4ccc5c(c4)CNC(=O)C5)c4ccsc4c3-c3c(F)cc(F)cc3OCCO)nn2CC1C (stereo not drawn) [Compound 927] | < 100 nM |  | A (percent of modification of PIK3CA protein ≥75%)
28 | C=CC(=O)N1CCn2nc(-c3nc(-c4ccc5cnn(C)c(=O)c5c4)c4ccsc4c3-c3c(F)cc(F)cc3OCCOC)cc2C1C (stereo not drawn) [Compound 928] | < 100 nM |  | A (percent of modification of PIK3CA protein ≥75%)
29 | C=CC(=O)N1CCn2nc(-c3nc(-c4cnc5c(c4)CN(C)CC5)c4ccsc4c3-c3c(F)cc(F)cc3OCCOC)cc2C1C (stereo not drawn) [Compound 929] | < 100 nM |  | A (percent of modification of PIK3CA protein ≥75%)
30 | C=CC(=O)N1CCn2nc(-c3nc(-c4ccc(N5CCN(C)CC5)nc4)c4ccsc4c3-c3c(F)cc(F)cc3OCCOC)cc2C1C (stereo not drawn) [Compound 930] | < 100 nM |  | A (percent of modification of PIK3CA protein ≥75%)
31 | C=CC(=O)N1CCn2nc(-c3nc(-c4ccc5c(c4)CNC(=O)C5)c4ccsc4c3-c3c(F)cc(F)cc3OCCOC)cc2C1C (stereo not drawn) [Compound 931] | < 100 nM |  | A (percent of modification of PIK3CA protein ≥75%)
32 | C=CC(=O)N1CCc2ncc(-c3nc(-c4ccc5nncn5c4)c4ccsc4c3-c3c(F)cc(F)cc3OCCOC)cc2C1 [Compound 941] | < 100 nM |  | A (percent of modification of PIK3CA protein ≥75%)
33 | C=CC(=O)N1Cc2cc(-c3nc(-c4ccc5c(c4)CN(C)C5=O)c4ccsc4c3-c3c(F)cc(F)cc3OC)nn2C(C)C1 (stereo not drawn) [Compound 946] | < 100 nM |  | A (percent of modification of PIK3CA protein ≥75%)
34 | C=CC(=O)N1Cc2cc(-c3nc(N4CCc5c(cnn5C)C4)c4ccsc4c3-c3c(F)cc(F)cc3OCCOC)nn2CC1C (stereo not drawn) [Compound 949] | < 100 nM |  | A (percent of modification of PIK3CA protein ≥75%)
35 | C=CC(=O)N1CCn2nc(-c3nc(-c4cnc(N5CCN(C)CC5)nc4)c4ccsc4c3-c3c(F)cc(F)cc3OCCOC)cc2[C@H]1C [Compound 951, 1-((R)-2-((S)-7-(2,4-difluoro-6-(2-methoxyethoxy)phenyl)-4-(2-(4-methylpiperazin-1-yl)pyrimidin-5-yl)thieno[3,2-c]pyridin-6-yl)-4-methyl-6,7-dihydropyrazolo[1,5-a]pyrazin-5(4H)-yl)prop-2-en-1-one] |  | < 100 nM | A (percent of modification of PIK3CA protein ≥75%)
36 | C=CC(=O)N1CCn2nc(-c3nc(-c4ccc5c(c4)C(=O)NCC5)c4ccsc4c3-c3c(F)cc(F)cc3OCCO)cc2[C@H]1C [Compound 955] | < 100 nM |  | A (percent of modification of PIK3CA protein ≥75%)
